Experimental data taken from ChEMBL document CHEMBL1806384, “Identification of benzofuran-4,5-diones as novel and selective non-hydroxamic acid, non-peptidomimetic based inhibitors of human peptide deformylase” (Bioorg Med Chem Lett, 2011).
pIC50: −log10 of the molar value.

What was measured:
[1] = molecular target: T1, Peptide deformylase, mitochondrial (Homo sapiens) (UniProt Q9HBH1); test: Inhibition of human peptide deformylase at 100 uM after 1 hr by fluorescence polarization based competition assay
T1 sequence (whole entry): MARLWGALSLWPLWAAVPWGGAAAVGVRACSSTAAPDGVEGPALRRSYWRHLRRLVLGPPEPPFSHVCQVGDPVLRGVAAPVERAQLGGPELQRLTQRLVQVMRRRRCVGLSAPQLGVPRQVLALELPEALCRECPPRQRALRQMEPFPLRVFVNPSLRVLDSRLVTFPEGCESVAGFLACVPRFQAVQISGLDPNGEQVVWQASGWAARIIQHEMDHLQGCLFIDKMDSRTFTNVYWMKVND

[2] = molecular target: T2, Peptide deformylase (Escherichia coli) (UniProt Q9JN24); test: Inhibition of Escherichia coli peptide deformylase at 100 uM after 1 hr by fluorescence polarization based competition assay
T2 sequence (whole entry): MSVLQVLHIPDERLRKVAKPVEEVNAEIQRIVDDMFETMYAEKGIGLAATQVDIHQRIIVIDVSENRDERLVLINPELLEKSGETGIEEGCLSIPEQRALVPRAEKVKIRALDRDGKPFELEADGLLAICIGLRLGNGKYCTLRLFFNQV

[3] = molecular target: T3, Aminopeptidase N (Sus scrofa) (UniProt P15145); test: Inhibition of porcine kidney microsomal aminopeptidase N at 100 uM after 1 hr by fluorescence polarization based competition assay
T3 sequence (whole entry): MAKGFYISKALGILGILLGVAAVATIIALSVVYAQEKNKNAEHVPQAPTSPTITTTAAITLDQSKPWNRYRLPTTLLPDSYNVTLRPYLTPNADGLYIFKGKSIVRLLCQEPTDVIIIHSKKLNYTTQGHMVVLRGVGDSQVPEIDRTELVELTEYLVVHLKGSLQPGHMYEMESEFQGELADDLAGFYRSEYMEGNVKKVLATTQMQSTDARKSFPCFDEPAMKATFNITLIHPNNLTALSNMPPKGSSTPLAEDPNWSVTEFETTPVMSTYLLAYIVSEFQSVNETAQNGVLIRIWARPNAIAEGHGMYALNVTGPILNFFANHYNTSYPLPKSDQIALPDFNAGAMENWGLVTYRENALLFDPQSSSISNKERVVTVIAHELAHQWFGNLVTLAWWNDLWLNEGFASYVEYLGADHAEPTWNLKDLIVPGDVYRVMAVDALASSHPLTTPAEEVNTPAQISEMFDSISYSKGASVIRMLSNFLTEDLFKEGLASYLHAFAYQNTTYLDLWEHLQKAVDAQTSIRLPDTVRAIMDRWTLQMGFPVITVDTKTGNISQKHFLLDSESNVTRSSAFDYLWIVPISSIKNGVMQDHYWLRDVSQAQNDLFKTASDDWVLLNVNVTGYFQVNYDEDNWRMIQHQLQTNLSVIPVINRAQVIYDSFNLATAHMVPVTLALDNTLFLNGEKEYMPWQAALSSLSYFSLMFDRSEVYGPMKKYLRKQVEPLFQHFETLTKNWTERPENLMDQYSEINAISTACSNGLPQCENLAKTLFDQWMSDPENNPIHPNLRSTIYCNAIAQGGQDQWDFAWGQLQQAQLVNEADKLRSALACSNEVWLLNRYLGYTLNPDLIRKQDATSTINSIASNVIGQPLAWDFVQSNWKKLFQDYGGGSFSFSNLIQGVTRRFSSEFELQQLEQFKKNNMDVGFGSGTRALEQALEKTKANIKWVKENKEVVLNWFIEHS

[4] = molecular target: T4, Interstitial collagenase (Homo sapiens) (UniProt P03956); test: Inhibition of human recombinant MMP1 at 100 uM after 1 hr by fluorescence polarization based competition assay
T4 sequence (whole entry): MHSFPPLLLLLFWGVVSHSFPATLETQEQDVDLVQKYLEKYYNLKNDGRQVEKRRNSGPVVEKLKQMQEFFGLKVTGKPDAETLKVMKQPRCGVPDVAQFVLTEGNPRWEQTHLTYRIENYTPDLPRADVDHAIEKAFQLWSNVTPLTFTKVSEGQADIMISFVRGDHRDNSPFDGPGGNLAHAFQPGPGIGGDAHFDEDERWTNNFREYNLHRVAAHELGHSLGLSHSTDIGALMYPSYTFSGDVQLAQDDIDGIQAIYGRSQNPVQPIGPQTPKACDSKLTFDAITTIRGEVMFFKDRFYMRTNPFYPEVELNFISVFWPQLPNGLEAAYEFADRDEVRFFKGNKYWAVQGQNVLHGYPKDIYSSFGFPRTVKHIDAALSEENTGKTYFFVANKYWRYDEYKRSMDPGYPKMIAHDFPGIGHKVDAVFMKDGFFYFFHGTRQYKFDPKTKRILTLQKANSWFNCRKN

HL-60 [5] = test: Cytotoxicity against human HL60 cells; format: functional, cell-based
HL-60 [6] = test: Cytotoxicity against human vincristine-resistant HL60 cells; format: functional, cell-based
Jurkat = test: Cytotoxicity against human Jurkat cells; format: functional, cell-based
MOLT-3 = test: Cytotoxicity against human MOLT3 cells; format: functional, cell-based
[7] = Cytotoxicity against human ALL3 cells; format: functional, cell-based
[8] = Cytotoxicity against human CWR22 cells; format: functional, cell-based
HEK293 = test: Cytotoxicity against human HEK293 cells; format: cell-based
Y79 = test: Cytotoxicity against human Y79 cells; format: functional, cell-based
[9] = Cytotoxicity against human Meso47 cells; format: functional, cell-based

Structure (SMILES) | inhibition [1] [%] | inhibition [2] [%] | inhibition [3] [%] | inhibition [4] [%] | pIC50 (HL-60 [5]) | pIC50 (HL-60 [6]) | pIC50 (Jurkat) | pIC50 (MOLT-3) | pIC50 [7] | pIC50 [8] | pIC50 (HEK293) | pIC50 (Y79) | pIC50 [9]
COc1cc(C(=O)c2coc3c2C(=O)C(=O)c2ccccc2-3)cc(OC)c1OC | 5 | 7 | 10 | 0 | – | – | – | – | – | – | – | – | –
COc1ccc(C(=O)c2coc3c(Cl)c(Cl)c(O)cc23)cc1 | 13 | 0 | 0 | 14 | 4.00 | 4.00 | 4.00 | 4.00 | 4.00 | 4.00 | 4.00 | 4.00 | 4.00
COc1cc(C(=O)c2coc3c(Br)c(Br)c(O)cc23)cc(OC)c1OC | 5 | 7 | 10 | 0 | 4.10 | 4.00 | 4.21 | 4.00 | 4.22 | 4.00 | 4.00 | 4.00 | 4.00
COc1ccc(C(=O)c2coc3cc(Cl)c(O)c(Cl)c23)cc1 | 26 | 3 | 0 | 0 | 4.72 | 4.00 | 4.62 | 4.49 | 4.00 | 4.00 | 4.49 | 4.00 | 4.00
COc1ccc(C(=O)c2coc3c2C(=O)C(=O)c2ccccc2-3)cc1 | 0 | 3 | 0 | 2 | – | – | – | – | – | – | – | – | –
COc1ccc(C(=O)c2coc3c(Br)c(Br)c(O)cc23)cc1OC | 0 | 0 | 0 | 0 | 4.24 | 4.00 | 4.43 | 4.28 | 4.00 | 4.00 | 4.28 | 4.00 | 4.00
O=C(c1ccccc1)c1coc2ccc(O)cc12 | 11 | 7 | 10 | 0 | 4.00 | 4.00 | 4.00 | 4.00 | 4.00 | 4.00 | 4.00 | 4.00 | 4.00
COc1ccc(C(=O)c2coc3ccc(O)cc23)cc1 | 0 | 0 | 4 | 0 | 4.00 | 4.00 | 4.48 | 4.00 | 4.00 | 4.00 | 4.00 | 4.00 | 4.00
COc1ccc(C(=O)c2coc3c(Br)cc(O)c(Br)c23)cc1 | 0 | 0 | 0 | 0 | 5.05 | 4.40 | 5.10 | 5.00 | 4.17 | 4.24 | 5.00 | 4.19 | 4.00
